Results: patent US9925139B2, “Pharmaceutical compositions for acute glucocorticoid therapy” (ACUCORT AB, priority 2004, dated 2018)

Tests used:
[1] = cited from earlier work; for Equivalent amount: dose equivalent for glucocorticoid therapy; for Hydrocortisone equivalent (1 mg of the glucocorticoid corresponds to the listed amount in mg of hydrocortisone): per 1 mg of the glucocorticoid
[2] = In vivo plasma cortisol profile in healthy volunteers with suppressed endogenous cortisol, oral mucosal administration; set-up: species or system human
Experimental: The in vivo experiments reported herein were carried out on healthy volunteers. At 6 pm and 11 pm the day before administration of the test composition, the endogenous cortisol secretion was suppressed by oral administration of 2 mg of betamethasone. The test composition was administered to healthy volunteers. The volunteers were in fasted state and were not allowed to take any food until noon. In the case a tablet is administered, it is ingested together with 200 ml of water. The test composition is administered between 8 am and 10 am on the day following the suppression of endogenous glucocorticoid secretion.
In vivo plasma profiles in humans, N=1 per composition
Dexamethasone suppression test, fasting state, otherwise as described in the paragraph denoted “Method”.
Two films were prepared essentially similar to Example 13—composition A. Film A contains 10 mg of hydrocortisone and film B contains 11.2 mg of hydrocortisone acetate.
The hydrocortisone compositions were tested in two human subjects after labial administration. The subjects had their endogenous glucocorticoid secretion suppressed by synthetic glucocorticoids. The plasma concentration of cortisol was monitored during 360 min after the labial administration, and the serum concentration time profiles from these two subjects are shown in FIGS. 6 and 7.
The compositions were tested after oral administration to two human subjects (see FIG. 8).

Row | Time at which first measured plasma concentration was attained ([2]; Example 13 films, 10 mg hydrocortisone, labial administration, two human subjects) [min] | Rate and extent of mucosal uptake ([2]; Example 13 films, 10 mg hydrocortisone, labial administration, two human subjects, FIGS. 6 and 7) | Compound | Equivalent amount [1] [mg] | Hydrocortisone equivalent (1 mg of the glucocorticoid corresponds to the listed amount in mg of hydrocortisone) [1] [mg] | Suitability for an immediate release composition (in vivo plasma profiles) ([2]; Example 11 thin-layer films, humans, N=1 per composition, fasting state, FIGS. 1-3)
1 |  |  | CC(=O)OCC(=O)[C@@]1(O)CC[C@H]2[C@@H]3CCC4=CC(=O)CC[C@]4(C)[C@H]3C(=O)C[C@@]21C [Cortisone acetate] | 25 | 0.8 | 
2 | 10 to 15 | high | C[C@]12CCC(=O)C=C1CC[C@@H]1[C@@H]2[C@@H](O)C[C@@]2(C)[C@H]1CC[C@]2(O)C(=O)CO [Hydrocortisone] | 20 | 1 | 
3 |  |  | C[C@@H]1C[C@H]2[C@@H]3C[C@H](F)C4=CC(=O)C=C[C@]4(C)[C@H]3[C@@H](O)C[C@]2(C)[C@@]1(O)C(=O)CO [Paramethasone] | 2 | 10 | 
4 |  |  | C[C@]12C=CC(=O)C=C1CC[C@@H]1[C@@H]2[C@@H](O)C[C@@]2(C)[C@H]1CC[C@]2(O)C(=O)CO [Prednisolone] | 5 | 4 | 
5 |  |  | C[C@]12C=CC(=O)C=C1CC[C@H]1[C@@H]3C[C@@H](O)[C@](O)(C(=O)CO)[C@@]3(C)C[C@H](O)[C@@]12F [Triamcinolone] | 4 | 5 | 
6 |  |  | CC(=O)OCC(=O)[C@@]1(O)CC[C@H]2[C@@H]3CCC4=CC(=O)CC[C@]4(C)[C@H]3[C@@H](O)C[C@@]21C [hydrocortisone acetate] |  |  | does not seem to be suitable for an immediate release composition
